One may read the EC50 as the concentration needed to bring the measured effect to its halfway point. As usually defined, the IC50 is the concentration at which inhibition is half-maximal.

The target in experiment [1] is T1, Toll-like receptor 7 (Homo sapiens, UniProt Q9NYK1).
T1 sequence (Q9NYK1 whole entry): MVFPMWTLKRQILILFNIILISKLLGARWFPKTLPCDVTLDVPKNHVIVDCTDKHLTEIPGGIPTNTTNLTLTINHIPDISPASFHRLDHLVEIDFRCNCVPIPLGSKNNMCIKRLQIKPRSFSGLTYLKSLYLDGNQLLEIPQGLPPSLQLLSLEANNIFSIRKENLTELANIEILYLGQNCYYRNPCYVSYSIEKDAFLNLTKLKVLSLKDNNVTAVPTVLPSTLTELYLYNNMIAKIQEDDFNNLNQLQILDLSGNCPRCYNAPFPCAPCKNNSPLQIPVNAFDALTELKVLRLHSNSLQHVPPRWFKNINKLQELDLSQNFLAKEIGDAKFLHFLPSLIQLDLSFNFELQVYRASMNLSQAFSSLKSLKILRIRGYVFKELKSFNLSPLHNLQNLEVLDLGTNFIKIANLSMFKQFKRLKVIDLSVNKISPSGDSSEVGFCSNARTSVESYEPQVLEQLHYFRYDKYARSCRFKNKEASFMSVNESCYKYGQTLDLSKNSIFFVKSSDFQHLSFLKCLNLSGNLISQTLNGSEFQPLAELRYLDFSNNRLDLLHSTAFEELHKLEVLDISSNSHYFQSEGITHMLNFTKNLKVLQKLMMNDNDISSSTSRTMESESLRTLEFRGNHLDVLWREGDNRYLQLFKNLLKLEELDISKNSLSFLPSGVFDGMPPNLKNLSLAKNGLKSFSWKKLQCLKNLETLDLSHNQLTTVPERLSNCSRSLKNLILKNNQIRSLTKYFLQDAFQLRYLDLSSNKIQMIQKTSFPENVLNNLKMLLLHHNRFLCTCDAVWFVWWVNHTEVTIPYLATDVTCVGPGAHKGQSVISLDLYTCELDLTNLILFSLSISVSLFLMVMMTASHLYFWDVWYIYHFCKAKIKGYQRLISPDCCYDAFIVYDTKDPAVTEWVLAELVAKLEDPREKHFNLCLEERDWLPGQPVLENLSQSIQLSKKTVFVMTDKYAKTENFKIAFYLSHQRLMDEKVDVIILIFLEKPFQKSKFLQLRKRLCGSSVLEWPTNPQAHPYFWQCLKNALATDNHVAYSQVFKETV
Kind of experiment: (§1) Agonist activity at human TLR7 by luciferase reporter gene assay. Format: functional.

In the next experiment the target is Toll-like receptor 2 (Homo sapiens, UniProt O60603). Kind of experiment: Antagonist activity at human TLR2 expressed in HE293 cells co-transfected with pELAM by luciferase reporter gene assay. It is filed as functional, cell-based, HEK293.
The species entered for another experiment is Homo sapiens. Description: Selectivity for human TLR2 over human TLR4.
The target of experiment [2] is T1, Toll-like receptor 7. Description: Agonist activity at TLR7 in human PBMC cells assessed as stimulation of interferon release. It is filed as functional, cell-based.
In experiment [3] the target is T2, Toll-like receptor 7 (Homo sapiens) (UniProt Q9NYK1).
T2 sequence (whole entry): T1 sequence (Q9NYK1 whole entry)
The description is as §1. Format: functional.

The target of experiment [4] is T3, Toll-like receptor 4 (Homo sapiens, UniProt O00206). Kind of experiment: Antagonist activity at TLR4 in human PBMC cells assessed as suppression of LPS-induced cytokine upregulation. It is filed as functional, cell-based.
Experiment [5] addresses T3, Toll-like receptor 4. Description: Antagonist activity at human TLR4 expressed in HE293 cells by ELAM1-luciferase reporter gene assay. It is filed as functional, cell-based, HEK293.
Experiment [6] has as its target Toll-like receptor 4 (Mus musculus) (UniProt Q9QUK6). Description: Inhibition of mouse TLR4-mediated cytokine production in mouse macrophages.
The target of experiment [7] is T4, Toll-like receptor 8 (Homo sapiens, UniProt Q9NR97).
T4 sequence (Q9NR97 whole entry): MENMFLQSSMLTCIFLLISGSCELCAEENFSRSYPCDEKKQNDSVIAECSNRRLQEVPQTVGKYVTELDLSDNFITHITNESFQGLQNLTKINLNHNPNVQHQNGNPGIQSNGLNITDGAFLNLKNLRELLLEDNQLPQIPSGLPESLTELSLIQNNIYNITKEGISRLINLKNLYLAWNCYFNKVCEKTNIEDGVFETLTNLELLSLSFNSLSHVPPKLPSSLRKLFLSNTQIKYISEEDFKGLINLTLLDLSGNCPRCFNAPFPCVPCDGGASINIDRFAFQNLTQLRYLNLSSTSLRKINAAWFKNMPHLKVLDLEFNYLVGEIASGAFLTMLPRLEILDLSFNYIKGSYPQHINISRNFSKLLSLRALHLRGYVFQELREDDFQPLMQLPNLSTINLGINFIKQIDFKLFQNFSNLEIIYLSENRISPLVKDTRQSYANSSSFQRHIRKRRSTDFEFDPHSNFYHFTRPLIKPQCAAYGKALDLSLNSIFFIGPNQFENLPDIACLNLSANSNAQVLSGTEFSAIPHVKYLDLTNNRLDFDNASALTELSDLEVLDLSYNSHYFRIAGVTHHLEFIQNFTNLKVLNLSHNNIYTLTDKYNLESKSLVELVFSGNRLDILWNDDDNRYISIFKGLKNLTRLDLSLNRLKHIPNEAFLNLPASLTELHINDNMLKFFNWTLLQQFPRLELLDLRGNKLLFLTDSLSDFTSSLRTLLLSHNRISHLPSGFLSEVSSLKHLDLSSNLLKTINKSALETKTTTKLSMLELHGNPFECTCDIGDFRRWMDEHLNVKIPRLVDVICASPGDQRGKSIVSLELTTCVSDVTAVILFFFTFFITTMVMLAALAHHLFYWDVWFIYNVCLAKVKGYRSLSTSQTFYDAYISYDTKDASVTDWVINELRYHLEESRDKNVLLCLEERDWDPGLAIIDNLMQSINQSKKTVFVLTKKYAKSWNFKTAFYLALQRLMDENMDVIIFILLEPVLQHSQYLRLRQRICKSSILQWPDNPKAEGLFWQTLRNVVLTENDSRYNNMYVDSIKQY
Kind of experiment: Agonist activity at human TLR8 expressed in HEK cells by NF-kappaB luciferase reporter gene assay. It is filed as functional, cell-based, HEK293.

Experiment [8] deals with T4, Toll-like receptor 8. Description: Agonist activity at TLR8 in human PBMC cells assessed as TNFalpha level by ELISA. Format: functional, cell-based. For orientation: In an ELISA, binding on a coated surface is turned into a signal by an enzyme label.

Activity calls are given as the source filed them. The calls are words filed in the database; no cut-off is given here.

T3 sequence (O00206 whole entry): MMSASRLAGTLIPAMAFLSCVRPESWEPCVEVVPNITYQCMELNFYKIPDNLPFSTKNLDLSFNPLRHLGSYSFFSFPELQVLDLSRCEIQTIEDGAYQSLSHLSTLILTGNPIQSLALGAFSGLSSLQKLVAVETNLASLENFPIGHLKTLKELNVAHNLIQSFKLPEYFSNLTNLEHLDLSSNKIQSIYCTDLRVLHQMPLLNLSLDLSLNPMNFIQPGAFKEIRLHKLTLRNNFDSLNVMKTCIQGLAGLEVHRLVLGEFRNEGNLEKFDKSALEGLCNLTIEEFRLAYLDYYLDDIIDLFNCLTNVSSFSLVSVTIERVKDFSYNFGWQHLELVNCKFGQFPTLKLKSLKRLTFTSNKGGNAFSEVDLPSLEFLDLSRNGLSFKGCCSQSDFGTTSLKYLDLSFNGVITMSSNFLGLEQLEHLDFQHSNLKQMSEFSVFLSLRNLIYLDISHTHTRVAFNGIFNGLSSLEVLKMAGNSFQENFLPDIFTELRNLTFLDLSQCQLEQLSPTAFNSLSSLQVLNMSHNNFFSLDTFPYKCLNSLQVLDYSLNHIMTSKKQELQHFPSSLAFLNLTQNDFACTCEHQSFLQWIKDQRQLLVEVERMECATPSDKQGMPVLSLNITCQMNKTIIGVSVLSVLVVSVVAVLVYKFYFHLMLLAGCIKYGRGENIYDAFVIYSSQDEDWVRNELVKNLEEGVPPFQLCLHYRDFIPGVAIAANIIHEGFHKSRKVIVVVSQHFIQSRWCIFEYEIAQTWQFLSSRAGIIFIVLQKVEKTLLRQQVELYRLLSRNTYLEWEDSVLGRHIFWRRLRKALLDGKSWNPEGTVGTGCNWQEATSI
Toll-like receptor 2, sequence (O60603 whole entry): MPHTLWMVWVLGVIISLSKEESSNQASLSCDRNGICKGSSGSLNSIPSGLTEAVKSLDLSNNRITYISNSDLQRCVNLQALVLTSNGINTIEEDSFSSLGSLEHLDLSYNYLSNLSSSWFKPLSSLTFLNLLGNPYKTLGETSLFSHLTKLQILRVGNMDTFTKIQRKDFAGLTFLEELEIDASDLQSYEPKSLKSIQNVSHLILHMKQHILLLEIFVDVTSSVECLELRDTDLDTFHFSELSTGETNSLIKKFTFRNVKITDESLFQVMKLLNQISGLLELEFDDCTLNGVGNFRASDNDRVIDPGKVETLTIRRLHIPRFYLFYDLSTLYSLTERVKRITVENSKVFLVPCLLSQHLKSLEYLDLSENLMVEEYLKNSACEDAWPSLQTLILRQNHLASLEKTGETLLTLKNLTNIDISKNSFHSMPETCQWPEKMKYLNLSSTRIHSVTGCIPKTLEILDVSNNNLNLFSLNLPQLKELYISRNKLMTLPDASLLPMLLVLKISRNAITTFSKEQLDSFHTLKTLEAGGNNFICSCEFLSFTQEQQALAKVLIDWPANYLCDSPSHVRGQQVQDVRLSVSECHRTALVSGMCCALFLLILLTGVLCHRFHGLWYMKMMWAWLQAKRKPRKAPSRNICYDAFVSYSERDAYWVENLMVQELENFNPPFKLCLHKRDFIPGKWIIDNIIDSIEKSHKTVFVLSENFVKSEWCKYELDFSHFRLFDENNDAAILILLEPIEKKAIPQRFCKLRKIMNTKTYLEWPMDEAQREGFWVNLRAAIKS

Take `COCCOc1nc(N)c2[nH]c(=O)n(CCCN(Cc3ccc(CC(=O)OC)cc3)C(=O)CN3CCN(C)CC3)c2n1`: the EC50 at Toll-like receptor 7 [1] is below 20 nM. Regarding `CCCCCCCCCCCCCCCCCCCC(=O)N[C@@H](COP(=O)(O)OCCNC(=O)[C@@H](NC(=O)Cc1c[nH]c2ccccc12)[C@@H](C)CC)C(=O)NCCC(O)CCCCCCCCCCCCC` (some centres not stated), the IC50 on Toll-like receptor 2 came to 460 nM. Besides, the Selectivity ratio in the experiment listed under Homo sapiens was above 25. For `CCNc1nc2c(N)nc(OCCOC)nc2n1Cc1ccccc1`, the EC50 at Toll-like receptor 7 [1] came out at 4400 nM.

For the compound `Nc1nc(NCc2ccccc2)nc2c1[nH]c(=O)n2Cc1cccc(CP(=O)(O)O)c1`, the EC50 at Toll-like receptor 7 [2] and at Toll-like receptor 7 [1] was 10 nM in each case. On to `CCN(CC)c1nc2c(N)nc(OCCOC)nc2n1Cc1ccccc1`, for which, in experiment [3], the result was inactive. For the compound `Nc1ccccc1Oc1ccc2c(N)nsc2c1`, the values for the IC50 at Toll-like receptor 4 [4] and against Toll-like receptor 4 [5] were 3000 nM and 7000 nM, respectively. Compound `CCOC(=O)C1=CCCCCC1S(=O)(=O)Nc1ccc(F)cc1Cl` (configuration not stated) gave an IC50 in [6] of 240 nM.

Consider `COCCOc1nc(N)c2nc(N)n(Cc3ccccc3)c2n1`, for which the 50% effective concentration (EC50) at Toll-like receptor 7 [1] is above 10000 nM. In [6], `CCOC(=O)C1=CCCCC1S(=O)(=O)Nc1ccc(F)cc1Cl` (configuration not stated) returned an IC50 of 3.2 nM. Consider `COCCOc1nc(N)c2[nH]c(=O)n(CCCN(Cc3ccc(CC(=O)OC)cc3)C(=O)CCC(=O)OC(C)(C)C)c2n1`, for which, at Toll-like receptor 7 [1], the EC50 was below 20 nM. Take `CCOC(=O)C1=CCCC1S(=O)(=O)Nc1ccc(F)cc1Cl` (configuration not stated): the IC50 in experiment [6] stood at 110 nM. Consider `CCOC(=O)N1CC(N)=Nc2ccccc2C1`, for which the EC50 on Toll-like receptor 8 [7] and at Toll-like receptor 8 [8] was below 100000 nM throughout.

At Toll-like receptor 7 [1], `Cc1ccc(Cn2c(=O)[nH]c3c(N)nc(-c4nccs4)cc32)cn1` came in with an EC50 of 100 nM.

The values are drawn from ChEMBL document CHEMBL1142478, “Small molecule modulators of toll-like receptors” (J Med Chem, 2008).
